Laboratory results: US7592009B2, “Polypeptide ligands for targeting cartilage and methods of use thereof” (Ecole Polytechnique Federale de Lausanne (EPFL), priority 2006, dated 2009)
Where no end group is shown, it is not given here.

T1: MMP-2 (Homo sapiens, UniProt P08253)
T1 sequence (P08253 110-660): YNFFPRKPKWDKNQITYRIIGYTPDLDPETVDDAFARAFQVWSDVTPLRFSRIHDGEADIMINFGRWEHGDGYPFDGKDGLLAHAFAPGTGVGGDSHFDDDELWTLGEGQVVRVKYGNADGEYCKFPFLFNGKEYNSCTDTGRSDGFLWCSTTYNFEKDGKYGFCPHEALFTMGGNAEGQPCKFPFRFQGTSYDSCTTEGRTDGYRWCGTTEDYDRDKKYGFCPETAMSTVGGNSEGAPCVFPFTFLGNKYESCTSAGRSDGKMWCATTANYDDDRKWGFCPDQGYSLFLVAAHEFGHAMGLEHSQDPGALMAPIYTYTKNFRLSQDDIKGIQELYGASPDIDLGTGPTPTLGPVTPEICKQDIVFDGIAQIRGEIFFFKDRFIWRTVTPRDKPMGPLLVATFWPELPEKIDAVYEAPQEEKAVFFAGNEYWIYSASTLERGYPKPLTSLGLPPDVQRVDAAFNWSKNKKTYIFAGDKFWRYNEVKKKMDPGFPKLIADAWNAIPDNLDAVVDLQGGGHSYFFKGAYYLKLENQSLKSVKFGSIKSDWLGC


Key:
articular cartilage = test: Competitive binding of free polypeptide or nanoparticles against phage clone C1-3 on articular cartilage; parameters: species or system bovine; settings: for decrease of phage titers versus control without polypeptide: 10 μM polypeptide, FIG. 3
Description: Cartilage grafts were harvested with 8 and 4 mm biopsy cutters (two-sided surface 1 cm^2 and 0.25 cm^2). A slice with the intact articular surface was removed to expose the phages only to the cartilage matrix below the surface. Affinity selection was preformed in polystyrene 48-well plates, which were blocked for nonspecific adhesion with a blocking solution containing 1% BSA for 2 hours prior to screening. A total of 5 screening rounds was carried out. In the first round 10^13 and in subsequent rounds 10^12 phage virions per ml were exposed to the cartilage graft, washed with PBS/Tween 20 and eluted at low pH. While the first round was supposed to give a high yield at low stringency, subsequent rounds were carried out with increasing stringency to select stronger binders. Conditions were increased from 4 hours of binding at RT and washing with PBS/0.1% Tween to 30 minutes binding at 37° C. with 220 RPM, washing with PBS/1% Tween 20 and the cartilage surface decreased from 1 cm^2 to 0.25 cm^2 in round five. Eluted phage was amplified overnight in E. coli strain TG1 in 2×YT medium and purified by two times PEG/NaCl (2M, 25%) precipitation. In the first round of screening, negative screens against the intact articular surface as well as synovial fluid (50% diluted in PBS to lower viscosity) were carried out in order to eliminate phages binding to these targets. Quantitative titer counts were obtained by spot titering of 15 μl of phage/bacterial culture onto LB-agar/tetracyclin plates and are given in transducing units(TU)/ml. The polypeptide sequences of affinity selected phage specific to the articular cartilage matrix was determined by DNA sequencing (Microsynth AG, Balgach, Switzerland) using the sequencing primer 5′-CAT GTA CCG TAA CAC TGA G (SEQ ID NO:5). Binding specificity was determined by exposing selected phage clones (10^8 TU/ml) to articular cartilage (0.25 cm^2) with and without synovial fluid, to synovial membrane (3×4 mm, 0.24 cm^2) and to polystyrene after blocking. […] The phage clones were identified by DNA sequencing and the corresponding titer counts calculated. For comepetetive binding against free polypeptide or nanoparticles and to obtain a dose-response curve, 10^8 TU/ml of phage and its free polypeptide in different concentrations or nanoparticles were mixed, exposed to articular cartilage and titer counts determined. […]
Based on affinity selection and the binding assays reported herein, the 6-mer polypeptide insert WYRGRL (SEQ ID NO:1) of clone C1-3 as well as its scrambled mismatch YRLGRW (SEQ ID NO:6) were synthesized on solid resin using standard Fmoc chemistry. […] A dose-response curve was determined by serial dilutions of the polypeptide ranging from 50 nM to 10 μM and mixing them with 10^8 TU/ml of phage. […]

MMP-2 = target: T1, MMP-2; test: MMP-2 zymography; type: biochemical

Molecule	decrease of phage titers versus control without polypeptide (articular cartilage)	IC50 (articular cartilage; polypeptide 50 nM to 10 μM mixed with 10^8 TU/ml phage C1-3, estimated from curve in FIG. 2, read-out: IC50, inhibition of cartilage binding of phage C1-3)	decrease of titer counts of recovered phage over the dose-response curve (articular cartilage; polypeptide increased from 50 nM to 10 μM, FIG. 2)	inhibition of MMP-2 activity (MMP-2; equimolar amount of trTIMP-3)	activity of the purified protein (MMP-2; inferred from MMP-2 zymography at equimolar amount)
WYRGRLC [synthetic polypeptide: insert WYRGRL of clone C1-3 with a cysteine added to the C-terminus]	~100 fold	~200 nM	two orders of magnitude		
YRLGRWC (Ac-YRLGRWC) [scrambled mismatch polypeptide of WYRGRL with C-terminal cysteine, reference compound]	did not result in a significant decrease in phage titer				
trTIMP-3: fusion protein of N-TIMP-3 (Cys24 to Asn 143) containing WYRGRL at the C-terminus (protein) CTCSPSHPQDAFCNSDIVIRAKVVGKKLVKEGPFGTLVYTIKQMKMYRGFSKMPHVQYIHTEASESLCGLKLEVNKYQYLLTGRVYEGKMYTGLCNFVERWDHLTLSQRKGLNYRYHLGCGGGWYRGRL				completely inhibits	~100%
